Source: US6221914A, “Sulfonamide bridging compounds that inhibit tryptase activity” (Array Biopharma Inc., priority 1998, dated 2001)

What was measured:
Type in all cases: biochemical
[1] = biological target: T1, Human Neutrophil Cathepsin G (Homo sapiens, UniProt P08311); experiment: Ki determination, human neutrophil cathepsin G (N-Suc-Ala-Ala-Pro-Phe-pNA); settings: 625 mM Tris-HCl, pH 7.5, 2.5 mM MgCl2, 0.125% Brij 35; read-out: Experimentally Determined Ki, Cathepsin G
T1 construct: from tissue; host or cells: human neutrophils
T1 sequence (P08311 21-255): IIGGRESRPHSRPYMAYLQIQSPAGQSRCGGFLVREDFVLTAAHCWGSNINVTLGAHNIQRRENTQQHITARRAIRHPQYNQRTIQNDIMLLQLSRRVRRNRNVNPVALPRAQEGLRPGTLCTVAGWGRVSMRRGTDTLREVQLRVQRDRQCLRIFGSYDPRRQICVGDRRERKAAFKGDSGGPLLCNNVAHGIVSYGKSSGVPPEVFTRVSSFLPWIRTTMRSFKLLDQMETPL
Method: (§1) Protease inhibition was assayed according to published procedures with minor modifications using various proteases and specific chromogenic peptide p-nitroanilide substrates. Assays were performed in Costar ultra-low cluster 96-well microtiter plate (Costar Corning Corp., Cambridge Mass.). Each protease was incubated with various concentrations of the test compound for 15 min. at 37° C. or as otherwise indicated, in specific assay buffer, and the residual activity was then measured by addition of the substrate. p-Nitroaniline produced by the proteolysis was determined by measuring the change in absorbance at 405 nm on a SpectraMAX 340 plate reader (Molecular devices, Sunnyvale, Calif.).
(§2) 1. The inhibition constant, Ki is calculated from individual data points using the equation for a tight-binding inhibitor (See Beith, "Proteinase Inhibitors-Proceedings of 2nd Int. Res. Conference", Fritz, et al. eds, New York, p.4463-4469 (1974)):
(§3) vi /vo [((Ki '+[I]+[E]o)^2 -4 [I]o
(§4) [E]o)^1/2 (Ki '+[I]o -[E]o)]/2[E]o
(§5) where Ki ' is apparent inhibition constant; vi and vo are the inhibited and uninhibited rates, respectively; [I]o and [E]o are the total concentrations of inhibitor and enzyme, respectively.
(§6) [note: [E]o is determined by active site titration of enzyme]
(§7) The Ki values are obtained by correcting Ki ' values for the effect of substrate concentration according to: [formula]
(§8) 2. Other inhibition data (Ki >>[E]o), the Ki is calculated from using the equations for a competitive inhibitor: [formula]
Human Neutrophil Cathepsin G activity was determined by using N-Suc-Ala-Ala-Pro-Phe-pNA in 625 mM Tris-HCl, pH 7.5, 2.5 mM MgCl2, 0.125% Brij 35 (See Groutas et al., Arch. Biochem. Biophys. 294, 144-146 (1992)).
(§9) The inhibition constant (Ki) of the test compounds against each proteolytic enzyme was determined according to Zitnik et al., Biochem. Biophys. Res. Commun. 232, 687-697 (1997)).

[2] = biological target: T2, Human Neutrophil elastase (Homo sapiens, UniProt P08246); experiment: Ki determination, human neutrophil elastase (pyroGlu-Pro-Val-pNA); settings: 100 mM Tris-HCl, pH 8.3, 0.96 M NaCl, 1% BSA; read-out: Experimentally Determined Ki, Elastase
T2 construct: from tissue; host or cells: human neutrophils
T2 sequence (P08246 30-267): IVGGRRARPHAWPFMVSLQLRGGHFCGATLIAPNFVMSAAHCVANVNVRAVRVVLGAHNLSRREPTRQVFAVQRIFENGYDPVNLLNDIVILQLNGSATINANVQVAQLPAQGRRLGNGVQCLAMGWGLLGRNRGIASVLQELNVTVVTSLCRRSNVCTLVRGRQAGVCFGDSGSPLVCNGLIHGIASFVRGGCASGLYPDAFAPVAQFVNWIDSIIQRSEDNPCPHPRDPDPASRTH
Method: as §1, §2, §3, §4, §5, §6, §7, §8
Human Neutrophil elastase activity was determined by using pyroGlu-Pro-Val-pNA in 100 mM Tris-HCl, pH 8.3, 0.96 M NaCl, 1% BSA (See Kramps, et al. Scand. J. Clin. Lab. Invest. 43, 427-432 (1983)).
as §9

[3] = biological target: T3, Bovine pancreatic Trypsin (Bos taurus, UniProt P00760); experiment: Ki determination, bovine pancreatic trypsin (N-a-Benzoyl-L-Arg-pNA); settings: 50 mM Tris-HCl, pH 8.2, 20 mM CaCl2; read-out: Experimentally Determined Ki, Trypsin
T3 construct: from tissue; host or cells: bovine pancreas
T3 sequence (P00760 24-246): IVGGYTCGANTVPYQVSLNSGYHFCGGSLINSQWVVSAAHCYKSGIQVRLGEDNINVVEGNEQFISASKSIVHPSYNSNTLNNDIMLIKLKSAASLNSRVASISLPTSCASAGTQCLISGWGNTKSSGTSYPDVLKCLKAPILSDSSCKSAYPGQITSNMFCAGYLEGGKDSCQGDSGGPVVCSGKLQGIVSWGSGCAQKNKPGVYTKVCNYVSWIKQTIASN
Method: as §1, §2, §3, §4, §5, §6, §7, §8
Bovine pancreatic Trypsin (TPCK-treated) activity was determined by using N-a-Benzoyl-L-Arg-pNA in 50 mM Tris-HCl, pH 8.2, 20 mM CaCl2 (See Somorin, et al., J. Biochem. 85, 157-162 (1979)).
as §9

[4] = biological target: T4, Human plasma kallikrein (Homo sapiens, UniProt P03952); experiment: Ki determination, human plasma kallikrein (H-D-Prolyl-Phe-Arg-pNA); settings: 50 mM Tris-HCl, pH 7.8, 200 mM NaCl, 0.05% BSA; read-out: Experimentally Determined Ki, Plasma Kallikrein
T4 construct: from tissue; host or cells: human plasma
T4 sequence (P03952 391-638 limits assumed): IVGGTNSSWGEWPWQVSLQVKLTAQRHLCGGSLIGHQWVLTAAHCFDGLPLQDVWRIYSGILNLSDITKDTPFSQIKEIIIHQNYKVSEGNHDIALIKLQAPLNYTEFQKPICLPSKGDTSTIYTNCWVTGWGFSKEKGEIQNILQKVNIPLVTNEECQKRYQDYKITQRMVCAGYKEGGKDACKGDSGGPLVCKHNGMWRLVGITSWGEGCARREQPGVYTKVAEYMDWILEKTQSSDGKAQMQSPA
T4 sequence (P03952 20-390 partner limits assumed): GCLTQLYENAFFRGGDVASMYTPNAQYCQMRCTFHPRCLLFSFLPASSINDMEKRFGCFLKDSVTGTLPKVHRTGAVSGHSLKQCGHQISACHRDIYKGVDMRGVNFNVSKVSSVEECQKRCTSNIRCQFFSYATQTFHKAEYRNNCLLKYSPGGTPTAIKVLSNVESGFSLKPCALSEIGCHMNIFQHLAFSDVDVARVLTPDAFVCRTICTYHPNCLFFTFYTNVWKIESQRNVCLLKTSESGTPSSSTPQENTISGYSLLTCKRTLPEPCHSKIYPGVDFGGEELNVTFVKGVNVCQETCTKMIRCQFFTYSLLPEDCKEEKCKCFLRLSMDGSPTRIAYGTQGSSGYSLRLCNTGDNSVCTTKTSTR
Method: as §1, §2, §3, §4, §5, §6, §7, §8
I. Human Plasma and r-Tissue Kallikrein
Human plasma and r-tissue kallikrein activity were determined in 50 mM Tris-HCl, pH 7.8, 200 mM NaCl, 0.05% BSA by using H-D-Prolyl-Phe-Arg-pNA and DL-Val-Leu-Arg-pNA, respectively (See Lottenberg, et al., Meth. Enzymol. 80, 341-361 (1981)).
as §9

Row | Compound | Ki [1] | Ki [2] | Ki [3] | Ki [4]
1 | N=C(N)c1cccc(S(=O)(=O)NCc2ccc(OCCCCCOc3ccc(CNS(=O)(=O)c4cccc(C(=N)N)c4)cc3)cc2)c1 [Example 41, 1,5-Bis-{4-[(3-carbamimidoyl-benzenesulfonylamino)-methyl]-phenoxy}-pentane] | > 100 µM | > 100 µM | 2.5 µM | 18 µM
2 | N=C(N)c1cccc(S(=O)(=O)NCc2ccc(OCCCCCCOc3ccc(CNS(=O)(=O)c4cccc(C(=N)N)c4)cc3)cc2)c1 [Example 43, 1,6-Bis-{4-[(3-carbamimidoyl-benzenesulfonylamino)-methyl]-phenoxy}-hexane] | > 100 µM | > 100 µM | 3.6 µM | > 100 µM
3 | N=C(N)c1cccc(S(=O)(=O)NCc2ccc(OCCCCCCCOc3ccc(CNS(=O)(=O)c4cccc(C(=N)N)c4)cc3)cc2)c1 [Example 45, 1,7-Bis-{4-[(3-carbamimidoyl-benzenesulfonylamino)-methyl]-phenoxy}-heptane] | > 100 µM | > 100 µM | 12 µM | 34 µM
4 | N=C(N)c1cccc(S(=O)(=O)NCc2ccc(OCCCCOc3ccc(CNS(=O)(=O)c4cccc(C(=N)N)c4)cc3)cc2)c1 [Example 47, 1,4-Bis-{4-[(3-carbamimidoyl-benzenesulfonylamino)-methyl]-phenoxy}-butane] | > 100 µM | > 100 µM | 1.8 µM | 2.5 µM
5 | N=C(N)c1cccc(S(=O)(=O)NCc2ccc(OCCCOc3ccc(CNS(=O)(=O)c4cccc(C(=N)N)c4)cc3)cc2)c1 [Example 49, 3,1-Bis-{4-[(3-carbamimidoyl-benzenesulfonylamino)-methyl]-phenoxy}-propane] | > 100 µM | > 100 µM | 2.8 µM | 6 µM
6 | N=C(N)c1ccc(S(=O)(=O)NCc2ccc(OCCCOc3ccc(CNS(=O)(=O)c4ccc(C(=N)N)cc4)cc3)cc2)cc1 [Example 50, 1,3-Bis-{4-[(4-carbamimidoyl-benzenesulfonylamino)-methyl]-phenoxy}-propane] | > 100 µM | > 100 µM |  | > 100 µM
7 | N=C(N)c1cccc(S(=O)(=O)NCc2ccc(OCCOc3ccc(CNS(=O)(=O)c4cccc(C(=N)N)c4)cc3)cc2)c1 [Example 51, 1,2-Bis-{4-[(3-carbamimidoyl-benzenesulfonylamino)-methyl]-phenoxy}-ethane] | > 100 µM | > 100 µM | 5.2 µM | 12 µM
8 | N=C(N)c1cccc(S(=O)(=O)NCc2ccc(COCc3ccc(CNS(=O)(=O)c4cccc(C(=N)N)c4)cc3)cc2)c1 [Example 53, 1,3-Bis-{4-[(3-carbamimidoyl-benzenesulfonylamino)-methyl]-phenyl}-2-oxapropane] | > 100 µM | > 100 µM | 3 µM | 8.8 µM
9 | N=C(N)c1ccc(C(=O)NCc2ccc(OCCCCCOc3ccc(CNC(=O)c4ccc(C(=N)N)cc4)cc3)cc2)cc1 [Example 54, 1,5-Bis-{4-[(4-carbamimidoyl-benzenecarbonylamino)-methyl]-phenoxy}-pentane] | > 100 µM | > 100 µM | 0.91 µM | 16 µM
10 | N=C(N)c1cccc(C(=O)NCc2ccc(OCCCCCOc3ccc(CNC(=O)c4cccc(C(=N)N)c4)cc3)cc2)c1 [Example 55, 1,5-Bis-{4-[(3-carbamimidoyl-benzenecarbonylamino)-methyl]-phenoxy}-pentane] | > 100 µM | > 100 µM | 0.9 µM | 11 µM
11 | N=C(N)c1ccc(C(=O)NCc2ccc(OCCCCCCOc3ccc(CNC(=O)c4ccc(C(=N)N)cc4)cc3)cc2)cc1 [Example 56, 1,6-Bis-{4-[(4-carbamimidoyl-benzenecarbonylamino)-methyl]-phenoxy}-hexane] | > 100 µM | > 100 µM | 1.3 µM | 
12 | N=C(N)c1cccc(C(=O)NCc2ccc(OCCCCCCOc3ccc(CNC(=O)c4cccc(C(=N)N)c4)cc3)cc2)c1 [Example 57, 1,6-Bis-{4-[(3-carbamimidoyl-benzenecarbonylamino)-methyl]-phenoxy}-hexane] | > 100 µM | > 100 µM | 1.7 µM | 
13 | N=C(N)c1ccc(C(=O)NCc2ccc(OCCCCCCCOc3ccc(CNC(=O)c4ccc(C(=N)N)cc4)cc3)cc2)cc1 [Example 58, 1,7-Bis-{4-[(4-carbamimidoyl-benzenecarbonylamino)-methyl]-phenoxy}-heptane] | > 100 µM | > 100 µM | 1.5 µM | 46 µM
14 | N=C(N)c1cccc(C(=O)NCc2ccc(OCCCCCCCOc3ccc(CNC(=O)c4cccc(C(=N)N)c4)cc3)cc2)c1 [Example 59, 1,7-Bis-{4-[(3-carbamimidoyl-benzenecarbonylamino)-methyl]-phenoxy}-heptane] | > 100 µM | > 100 µM | 1.1 µM | 72 µM
15 | N=C(N)c1ccc(C(=O)NCc2ccc(OCCCCOc3ccc(CNC(=O)c4ccc(C(=N)N)cc4)cc3)cc2)cc1 [Example 60, 1,4-Bis-{4-[(4-carbamimidoyl-benzenecarbonylamino)-methyl]-phenoxy}-butane] | > 100 µM | > 100 µM | 1.5 µM | 6.3 µM
16 | N=C(N)c1cccc(C(=O)NCc2ccc(OCCCCOc3ccc(CNC(=O)c4cccc(C(=N)N)c4)cc3)cc2)c1 [Example 61, 1,4-Bis-{4-[(3-carbamimidoyl-benzenecarbonylamino)-methyl]-phenoxy}-butane] | > 100 µM | > 100 µM | 1.2 µM | 7.7 µM
17 | N=C(N)c1ccc(C(=O)NCc2ccc(OCCCOc3ccc(CNC(=O)c4ccc(C(=N)N)cc4)cc3)cc2)cc1 [Example 62, 1,3-Bis-{4-[(4-carbamimidoyl-benzoylamino)-methyl]-phenoxy}-propane] | > 100 µM | > 100 µM | 2.4 µM | 2.9 µM
18 | N=C(N)c1cccc(C(=O)NCc2ccc(OCCCOc3ccc(CNC(=O)c4cccc(C(=N)N)c4)cc3)cc2)c1 [Example 63, 1,3-Bis-{4-[(3-carbamimidoyl-benzoylamino)-methyl]-phenoxy}-propane] | > 100 µM | > 100 µM | 2.4 µM | 
19 | N=C(N)c1ccc(C(=O)NCc2ccc(COCc3ccc(CNC(=O)c4ccc(C(=N)N)cc4)cc3)cc2)cc1 [Example 66, 1,3-Bis-{4-[(4-carbamimidoyl-benzenecarbonylamino)-methyl]-phenyl}-2-oxapropane] |  | > 100 µM | 0.51 µM | 0.7 µM
